From patent US10640533B2, “Epoxyketone compounds for enzyme inhibition” (CENTRAX INTERNATIONAL, INC., priority 2014, dated 2020)
Converted amounts (≈) assume the structure as drawn. Where two headings read alike, the source gives them in different places.

Key:
[1] = Aqueous solubility of the compounds; format: physicochemical; settings: 50 mM citrate buffer, pH 4, aqueous buffer, thermodynamic from solid, 50 mM citrate pH4.0, 25° C.
Experimental: To determine the solubility of the compounds, 1-5 mg of a compound was weighed into a vial. 1 mL of aqueous buffer (50 mM citrate at pH4.0) was added. The vial was shaken at 25° C. for 24 hours and then centrifuged for 10 min at 10000 rpm. The supernatant was filtered through a 0.45 μm membrane filter and analyzed for the concentration of the compound. In certain embodiments, the aqueous solubility of the compounds is described herein in Table 1.

[2] = molecular target: Constitutive 20S proteasome peptidylglutamyl peptide hydrolyzing (PGPH) activity (Homo sapiens (Human), UniProt P28072+Q99436); assay: Constitutive 20S proteasome PGPH activity inhibition, fluorogenic substrate Z-Leu-Leu-Glu-AMC; format: biochemical; settings: purified human 20S proteasome, room temperature, one hour
Experimental: (§1) Inhibition of the 20S proteasome can be determined by methods and assays known in the art, for example, as disclosed by Stein et al., Biochemistry (1996), 35, 3899-3908; by Lightcap et al., Clinical Chemistry, 2000, 46, 673-683; by Kisselev et al., Journal of Biological Chemistry. (2006), 281, 8582-8590 and in U.S. application Ser. No. 09/569,748. The chymotrypsin-like (CT-L), peptidylglutamyl peptide hydrolyzing (PGPH) and trypsin-like (T-L) activities of the 20S proteasome are measured with a fluorogenic substrate assay method using succinyl-Leu-Leu-Val-Tyr-AMC, Z-Leu-Leu-Glu-AMC and Boc-Leu-Arg-Arg-AMC, respectively, as the substrates in an assay buffer. The free fluorophore 7-Amino-4-methylcoumarin (AMC) after cleavage from the substrates is quantified using a fluorometer and activity of CT-L, PGPH and T-L of 20S proteasome is determined.
(§2) Inhibition of the chymotrypsin-like (CT-L), peptidylglutamyl peptide hydrolyzing activity (PGPH), and trypsin-like (T-L) activities of the 20S proteasome in enzymatic assays were determined using succinyl-Leu-Leu-Val-Tyr-AMC (10 μmol/L), Z-Leu-Leu-Glu-AMC (10 μmol/L) and Boc-Leu-Arg-Arg-AMC (50 μmol/L), respectively, as the substrates with purified human 20S proteasome at 2, 4 and 8 nmol/L, respectively, in the assay buffer containing 25 mM HEPES (pH7.5), 0.5 mM EDTA, 0.002% sodium dodecyl sulfate (SDS) and 0.05% NP-40. Stock solutions of the 20S proteasome inhibitors disclosed herein were prepared in dimethyl sulfoxide (DMSO) and the final DMSO concentration in the assay mixture was 1%. Reaction was conducted at room temperature for one hour. Proteasome activity was measured based on detection of the fluorophore 7-Amino-4-methylcoumarin (AMC) after cleavage from the substrates with a plate-based spectrofluorometer.

[3] = molecular target: 20S Immunoproteasome peptidylglutamyl peptide hydrolyzing (PGPH) activity (Homo sapiens (Human), UniProt P28065+P40306); assay: 20S immunoproteasome PGPH activity inhibition, fluorogenic substrate Z-Leu-Leu-Glu-AMC; format: biochemical; settings: purified human 20S proteasome, room temperature, one hour
Experimental: as §1, §2

[4] = molecular target: Constitutive 20S proteasome chymotrypsin-like (CT-L) activity (Homo sapiens (Human), UniProt P20618+P28074); assay: Constitutive 20S proteasome CT-L activity inhibition, fluorogenic substrate succinyl-Leu-Leu-Val-Tyr-AMC; format: biochemical
Experimental: as §1, §2

[5] = molecular target: Constitutive 20S proteasome trypsin-like (T-L) activity (Homo sapiens (Human), UniProt P49720+Q99436); assay: Constitutive 20S proteasome T-L activity inhibition, fluorogenic substrate Boc-Leu-Arg-Arg-AMC; format: biochemical
Experimental: as §1, §2

[6] = molecular target: 20S Immunoproteasome chymotrypsin-like (CT-L) activity (Homo sapiens (Human), UniProt P20618+P28062); assay: 20S immunoproteasome CT-L activity inhibition, fluorogenic substrate succinyl-Leu-Leu-Val-Tyr-AMC; format: biochemical; settings: purified human 20S proteasome, room temperature, one hour
Experimental: as §1, §2

[7] = molecular target: 20S Immunoproteasome trypsin-like (T-L) activity (Homo sapiens (Human), UniProt P40306+P49720); assay: 20S immunoproteasome T-L activity inhibition, fluorogenic substrate Boc-Leu-Arg-Arg-AMC; format: biochemical; settings: purified human 20S proteasome, room temperature, one hour
Experimental: as §1, §2

[8] = form of 20S proteasome not stated, 'below about'
[9] = purified human 20S proteasome, room temperature, one hour, read-out: Proteasome inhibition IC50 (nM) Constitutive 20S proteasome CT-L
[10] = purified human 20S proteasome, room temperature, one hour, read-out: Proteasome inhibition IC50 (nM) Constitutive 20S proteasome T-L
[11] = form of 20S proteasome not stated, 'below about', read-out: concentration showing inhibition of T-L activity of the 20S proteasome

Structure (SMILES) | solubility at 24 h [1] | IC50 [2] | IC50 [3] | IC50 [4, 8] | IC50 [4, 9] | IC50 [5, 10] | IC50 [6] | IC50 [7] | IC50 [5, 11]
COC[C@H](NC(=O)c1cnc(C)s1)C(=O)N[C@@H](COC)C(=O)N[C@@H](Cc1ccccc1)C(=O)[C@@]1(C)CO1 [CX13-709] | 570 µg/mL (≈ 1070 µM) | – | – | – | – | – | – | – | –
CC(=O)N[C@@H](CCc1ccccc1)C(=O)N[C@@H](Cc1ccncc1)C(=O)N[C@@H](CC(C)C)C(=O)[C@@]1(C)CO1 [CX13-130] | 1360 µg/mL (≈ 2600 µM) | > 20000 nM | > 20000 nM | < 100 nM | 62.4 nM | 3600 nM | 248 nM | 1650 nM | –
COC[C@H](NC(=O)[C@H](CCc1ccccc1)NC(=O)c1cc(CN2CCOCC2)on1)C(=O)N[C@@H](CC(C)C)C(=O)[C@@]1(C)CO1 [CX13-601] | 480 µg/mL (≈ 765 µM) | > 20000 nM | > 20000 nM | < 50 nM | 16 nM | > 20000 nM | 31.7 nM | > 20000 nM | –
CC(C)C[C@H](NC(=O)[C@H](CCc1ccccc1)NC(=O)c1cc(CN2CCOCC2)on1)C(=O)N[C@@H](Cc1ccccc1)C(=O)[C@@]1(C)CO1 [CX13-105] | 21 µg/mL (≈ 31.2 µM) | > 20000 nM | > 20000 nM | < 5 nM | 0.97 nM | > 20000 nM | 1.34 nM | > 20000 nM | –
C[C@]1(C(=O)[C@H](Cc2ccccc2)NC(=O)[C@H](Cc2cscn2)NC(=O)[C@H](CCc2ccccc2)NC(=O)c2cc(CN3CCOCC3)on2)CO1 [CX13-605] | 120 µg/mL (≈ 168 µM) | > 20000 nM | > 20000 nM | < 10 nM | 12.2 nM | > 20000 nM | 6.81 nM | > 20000 nM | –
COC[C@H](NC(=O)c1cc(CN2CCOCC2)on1)C(=O)N[C@@H](Cc1ccncc1)C(=O)N[C@@H](CC(C)C)C(=O)[C@@]1(C)CO1 [CX13-500] | > 2350 µg/mL | > 20000 nM | > 20000 nM | – | 121 nM | > 20000 nM | 170 nM | > 20000 nM | –
CC(C)C[C@H](NC(=O)[C@H](Cc1ccccc1)NC(=O)[C@H](CCc1ccccc1)NC(=O)c1cc(CN2CCOCC2)on1)C(=O)[C@@]1(C)CO1 [CX13-600] | 20 µg/mL (≈ 29.7 µM) | > 20000 nM | > 20000 nM | < 5 nM | 4.28 nM | > 20000 nM | 7.41 nM | 19900 nM | –
Cc1ncc(C(=O)N[C@@H](CCc2ccccc2)C(=O)N[C@@H](Cc2ccncc2)C(=O)N[C@@H](CC(C)C)C(=O)[C@@]2(C)CO2)s1 [CX13-137] | 910 µg/mL (≈ 1500 µM) | > 20000 nM | > 20000 nM | < 50 nM | 13.5 nM | 11900 nM | 60.4 nM | 5860 nM | –
CC(C)C[C@H](NC(=O)[C@H](Cc1ccncc1)NC(=O)[C@H](CCc1ccccc1)NC(=O)Cc1ccc(CN2CCOCC2)cc1)C(=O)[C@@]1(C)CO1 [CX13-133] | 6360 µg/mL (≈ 9110 µM) | > 20000 nM | > 20000 nM | < 5 nM | 3.58 nM | 443 nM | 4.65 nM | 455 nM | < 500 nM
CC(C)C[C@H](NC(=O)[C@H](CCc1ccccc1)NC(=O)CN1CCOCC1)C(=O)N[C@@H](Cc1ccccc1)C(=O)[C@@]1(C)CO1 [CX13-107] | 83 µg/mL (≈ 137 µM) | > 20000 nM | > 20000 nM | < 5 nM | 4.74 nM | 9950 nM | 5.1 nM | 6220 nM | –
CC(C)C[C@H](NC(=O)[C@H](CCc1ccccc1)NC(=O)c1cc(CN2CCOCC2)on1)C(=O)N[C@@H](Cc1ccncc1)C(=O)[C@@]1(C)CO1 [CX13-104] | 1440 µg/mL (≈ 2130 µM) | > 20000 nM | > 20000 nM | < 50 nM | 33.3 nM | > 20000 nM | 33.6 nM | > 20000 nM | –
COC[C@H](NC(=O)[C@H](CCc1ccccc1)NC(=O)Cc1ccc(CN2CCOCC2)cc1)C(=O)N[C@@H](CC(C)C)C(=O)[C@@]1(C)CO1 [CX13-606] | 3730 µg/mL (≈ 5730 µM) | > 20000 nM | > 20000 nM | < 10 nM | 6.1 nM | 297 nM | 59.3 nM | 186 nM | < 500 nM
CC(C)C[C@H](NC(=O)[C@H](CCc1ccccc1)NC(=O)CN1CCOCC1)C(=O)N[C@@H](Cc1ccncc1)C(=O)[C@@]1(C)CO1 [CX13-109] | 3490 µg/mL (≈ 5740 µM) | > 20000 nM | > 20000 nM | – | > 500 nM | > 20000 nM | > 500 nM | > 20000 nM | –
COC[C@H](NC(=O)[C@H](CCc1ccccc1)NC(=O)c1cnc(C)s1)C(=O)N[C@@H](Cc1ccccc1)C(=O)[C@@]1(C)CO1 [CX13-705] | 20 µg/mL (≈ 33.7 µM) | > 20000 nM | > 20000 nM | < 10 nM | 9.75 nM | 15800 nM | 15.3 nM | > 20000 nM | –
COC[C@H](NC(=O)c1cc(C)on1)C(=O)N[C@@H](Cc1ccncc1)C(=O)N[C@@H](CC(C)C)C(=O)[C@@]1(C)CO1 [CX13-501] | 4480 µg/mL (≈ 8460 µM) | > 20000 nM | > 20000 nM | – | 113 nM | > 20000 nM | 392 nM | > 20000 nM | –
Cc1cc(C(=O)N[C@@H](CCc2ccccc2)C(=O)N[C@@H](Cc2ccncc2)C(=O)N[C@@H](CC(C)C)C(=O)[C@@]2(C)CO2)no1 [CX13-135] | 1160 µg/mL (≈ 1970 µM) | > 20000 nM | > 20000 nM | < 10 nM | 6.56 nM | 13400 nM | 28.1 nM | 6450 nM | –
